Biological target: T1, DCAF1 WD40 domain (residues 1077-1390) (Homo sapiens, UniProt Q9Y4B6)
T1 construct: DCAF1 WD40 domain (residues 1077-1390)
Experiment: DCAF1 binding assay by SPR (Biacore 8K+), DCAF1-3 KD
Conditions: 25 °C, read-out: DCAF1-3 SPR (KD)

T1 sequence (Q9Y4B6 1077-1390): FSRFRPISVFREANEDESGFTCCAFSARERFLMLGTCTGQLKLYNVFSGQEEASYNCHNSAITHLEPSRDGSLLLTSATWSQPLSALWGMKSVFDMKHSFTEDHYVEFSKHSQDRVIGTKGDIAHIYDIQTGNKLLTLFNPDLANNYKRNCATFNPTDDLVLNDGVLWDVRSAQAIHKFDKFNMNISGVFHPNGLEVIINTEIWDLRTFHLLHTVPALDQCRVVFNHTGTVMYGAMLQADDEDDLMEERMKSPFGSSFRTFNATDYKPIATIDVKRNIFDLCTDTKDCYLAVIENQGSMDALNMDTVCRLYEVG

SMILES	Kd [µM]
NC(=O)C[C@@]1(NC(=O)c2cn[nH]c2-c2ccccc2F)CCc2ccc(Cl)cc21 [I-361]	> 200
Fc1cccc(N2C[C@H](F)C[C@@H](Nc3cc(N4CCOCC4)ccn3)C2)c1 [I-275]	> 200
C[C@@H]1CC[C@H](O)CN1c1ccnc(N2CC[C@@H]3[C@H]2CCCN3c2cccc(F)c2)c1 [I-824]	< 10
NCCCCCCCCCCCCCCC1CCN(c2ccnc(N3CC[C@@H]4[C@H]3CCCN4c3cccc(F)c3)c2)CC1 [I-725]	10 to 100
Fc1cccc(N2C[C@H](Nc3cc(N4CCOCC4)ncn3)C3CCC[C@H]2C3)c1 (stereo in doubt) [I-384]	> 200
O=C1NCCN1Cc1cccc(N2CCC[C@H]3[C@@H]2CCN3c2cc(N3CCCCC3)ccn2)c1 [I-960]	< 10
NC(=O)NCc1cccc(N2CCC[C@H]3[C@@H]2CCN3c2cc(N3CCCCC3)ccn2)c1 [I-953]	< 10
NC(=O)C[C@H](NC(=O)c1cn[nH]c1-c1ccccc1F)c1ccccc1O [I-339]	> 200
NC(=O)C[C@H](NC(=O)c1cn[nH]c1-c1cccc(O)c1)c1cccc(Cl)c1 [I-332]	10 to 100
C=CC(=O)Nc1ccnc(N[C@@H]2CCCN(c3cccc(F)c3)C2)c1 [I-447]	10 to 100
CCC(=O)NC1CCC2(CC1)CCN(c1cccc(N[C@@H]3CCCN(c4cccc(F)c4)C3)c1)CC2 [I-853]	< 10
c1ccc2c(N3CCC[C@@H](Nc4cncc(N5CCOCC5)c4)C3)cncc2c1 [I-365]	< 10
CO[C@@H]1C[C@@H](Nc2cc(N3CCOCC3)ncn2)CN(c2cccc(F)c2)C1 [I-164]	> 200
NC(=O)C[C@H](NC(=O)c1cn[nH]c1C1=CCOCC1)c1cccc(Cl)c1 [I-496]	10 to 100
Fc1cccc(N2CCC[C@@H](Nc3cc(N4CCOCC4)ncc3Cl)C2)c1 [I-406]	> 200
CN1CCN(CCC2CCN(c3ccnc(N4CC[C@@H]5[C@H]4CCCN5c4cccc(F)c4)c3)CC2)CC1 [I-816]	< 10
c1ccc2ncc(N3CCC[C@@H](Nc4cc(N5CCOCC5)ncn4)C3)cc2c1 [I-399]	> 200

SMILES	Kd [µM]
Cc1sc2c(c1C)C(c1ccc(Cl)cc1)=N[C@@H](CC(=O)NCCOCCOCCOCCOCCOCCOCCn1ncc(C(=O)N[C@@H](CC(N)=O)c3cccc(Cl)c3)c1-c1ccccc1F)c1nnc(C)n1-2 [I-492]	> 200
Cc1c(F)ccc(F)c1-c1c(C(=O)N[C@@H](CC(N)=O)c2cccc(Cl)c2)cn(C)c1C(=O)c1ccccc1 [I-886]	< 10
Cc1c(F)ccc(F)c1-c1c(C(=O)N[C@@H](CC(N)=O)c2cccc(Cl)c2)c[nH]c1C(=O)c1cccc(O)c1 [I-792]	< 10
Fc1cccc(N2CCC[C@@H](N3CCCc4c(N5CCCCC5)ccnc43)C2)c1 [I-808]	> 200
Fc1cccc(N2CCC[C@@H](Nc3cc([C@H]4CCCCO4)ccn3)C2)c1 [I-95]	> 200
C=CC(=O)NCCCN1CCN(c2ccnc3c2CCN3C2CCCN(c3cccc(F)c3)C2)CC1 (stereo not drawn) [I-845]	10 to 100
c1ccc(Cn2cc(N3CCC[C@@H](Nc4cc(N5CCOCC5)ccn4)C3)cn2)cc1 [I-420]	> 200
CCN1CCN(c2ccnc(N[C@@H]3CCCN(c4cccc(F)c4)C3)n2)CC1 [I-316]	> 200
C[C@@H](C(N)=O)[C@H](NC(=O)c1c[nH]nc1-c1ccccc1F)c1cccc(Cl)c1 [I-148]	< 10
NC(=O)C[C@H](NC(=O)c1c[nH]c(Cc2ccccc2)c1-c1c(F)cccc1F)c1cccc(Cl)c1 [I-566]	< 10
COCc1ccc(F)c(-c2[nH]ncc2C(=O)N[C@@H](CC(N)=O)c2cccc(Cl)c2)c1 [I-248]	10 to 100
NC(=O)CN(c1cc(N2CCOCC2)ccn1)[C@@H]1CCCN(c2cccc(F)c2)C1 [I-272]	> 200
COc1cnc(N2CCOCC2)cc1N[C@@H]1CCCN(c2cccc(F)c2)C1 [I-407]	> 200
Cn1cncc1N1CCC[C@@H](Nc2cc(N3CCOCC3)ccn2)C1 [I-773]	10 to 100
O[C@H]1CCCN(c2ccnc(N3CC[C@H]4[C@@H]3CCCN4c3cccc(F)c3)c2)C1 [I-797]	10 to 100
Fc1cccc(N2CCC[C@@H](Nc3cc(N4CC5CC5C4)ccn3)C2)c1 (stereo partly drawn) [I-574]	10 to 100
